Legend:
[1] = system: progression of CKD induced by high-salt diet following recovery from I/R injury; experiment: AKI-to-CKD progression: unilateral I/R, contralateral nephrectomy and high salt diet in rats (Study III); assay type: in vivo, rat
Excerpt: Study III was designed to investigate SOCE on progression of CKD induced by high-salt diet following recovery from I/R injury using a model of AKI-to-CKD described previously. Rats acclimated to a standard diet (AIN 76A, Dyets, Bethlehem, PA) containing 0.4% NaCl were subjected to left unilateral I/R or sham surgery and allowed to recover for ˜5 weeks. Rats were then subjected to right unilateral nephrectomy and subsequently exposed to elevated dietary Na+ (AIN76A plus 4% NaCl) for an additional 4 weeks (FIG. 9). Sham-control rats were not subjected to renal pedicle clamping, but were subjected to unilateral nephrectomy. Simultaneous with exposure to high salt diet, rats were randomly assigned to vehicle or YM58483 treatment (1mg·kg^−1·day^−1; p.o.). At the end of all studies, rats were deeply anesthetized with 50-100 mg/kg pentobarbital (Fatal Plus, Vortech, Dearborn, MI) and kidneys harvested for analysis.
To measure creatinine, tail blood was collected in heparin containing tubes and centrifuged to collect plasma. Plasma creatinine was measured using a Pointe Scientific Analyzer and Creatinine Assay reagents using methods outlined by the manufacturer (Pointe Scientific, Canton MI). Urine was collected for 24 hours by placing rats in metabolic cages and urine volume was determined gravimetrically. Urine creatinine was measured using a colorimetric assay adopted for microplate readers. Creatinine clearance was measured using UCr*V/PCr.
At the time of tissue harvest, kidneys were bisected and one half was fixed by immersion in 10% formalin, embedded in paraffin and 5 μm sections stained with picrosirus red to assess fibrosis. For quantitative analysis, five random images of renal outer medulla were obtained using Leica DMLB (Scientific Instruments, Columbus, OH) microscope with a 20× objective. The percent area of picrosirus red stain was scored in a blinded fashion using Image J (NIH).
Total RNA was obtained from kidney using Trizol and the Zymogen RNA extraction kit and cDNA was prepared using MMLV enzyme (Invitrogen, Carlsburg, CA). Quantitative real time PCR (qPCR) using gene specific primers was performed using ABI 7500 (Applied Biosystems, Foster City, CA). mRNA values were calculated using 2^−ΔΔCt. Specific primers sequences for IL-6 (catalog #Rn01410330_m1), Kim-1 (#Rn00597703_m1) and IL17 (Rn01757168_m1) were purchased from ThermoFisher (Waltham, MA).
Freshly harvested kidneys were minced and digested in liberase (2 μg/ml. Roche, Indianapolis IN) for 15 min at 37° C. using Gentle MACs (Miltenyli, San Diego, CA). The digested tissue was filtered through a 100-μm mesh and washed with RPMI containing 10% fetal bovine serum (Invitrogen). Mononuclear cells were isolated using Percol (Sigma) density gradient centrifugation.
To evaluate protein expression of IL17 or Orai1, Orai2 or Orai3, cells were restimulated with PMA and ionomycin for 6 hours in the presence of monensin (Golgistop, 1 μg·ml, BD Biosciences) permeabilized with saponin ([…]) and stained with relevant antibody. Cells were scanned using flow cytometry (FACSCalibur, BD Biosciences, San Jose, CA) and scans were analyzed using Flowjo software (Tree Star, Ashland, OR).
Study III was designed to investigate SOCE on progression of CKD induced by high-salt diet following recovery from I/R injury using a model of AKI-to-CKD described previously. Rats acclimated to a standard dict (AIN 76A, Dyets, Bethlehem, PA) containing 0.4% NaCl were subjected left unilateral I/R or sham surgery and allowed to recover for ˜5 weeks. Rats were then subjected to right unilateral nephrectomy and subsequently exposed to elevated dietary Na+ (AIN76A plus 4% NaCl) for an additional 4 weeks (FIG. 9). Sham-control rats were not subjected to renal pedicle clamping, but were subjected to unilateral nephrectomy. Simultaneous with exposure to high salt dict, rats were randomly assigned to vehicle or YM58483 treatment (1 mg·kg−1·day−1; p.o.). […]

human blood CD4+ cells = experiment: In vitro stimulation of human blood CD4+ cells from AKI patients with elevated sodium, IL17 response; assay type: cell-based; conditions: 170 mM Na+, overnight (~12 hours)
Method: For in vitro stimulation of human blood cells, primary T cells were isolated from fresh blood using Straight whole blood CD4 kit from Miltneyli Biotech (Miltenyli, San Diego, CA) according to manufactures' protocol. CD4+T cells were plated at a density of 1×10^6 cells/mL in RPMI medium supplemented with FBS. Cells were stimulated with human anti-CD3/CD28 dynabeads (Gibco; Catalogue no 11161D) along with labeled treatment overnight (˜12 hours). T cells were harvested and incubated with monensin for 6 hours, prior to staining for IL-17 (Table 4).

[2] = 1 mg/kg/day p.o. during 4 weeks high salt diet

Cc1nnsc1C(=O)Nc1ccc(-n2nc(C(F)(F)F)cc2C(F)(F)F)cc1 [YM58483/BPT2, N-[4-[3,5-Bis(trifluoromethyl)-1H-pyrazol-1-yl]phenyl]-4-methyl-1,2,3-thiadiazole-5-carboxamide]
inhibited: IL17 response to elevated extracellular sodium (human blood CD4+ cells)
significantly attenuated: Kidney IL6 mRNA expression [1, 2] | expression of Kim-1 [1, 2] | increase in B cells [1, 2] | increase in MΦ/dendritic cells [1, 2] | increase in kidney CD4+ cells [1, 2] | increase in kidney CD8+ cells [1, 2] | increased expression (re-stimulation) of IL17+ cells [1, 2] | urinary albumin excretion [1, 2] | creatinine clearance (reduction relative to sham) ([1]; end of study, 9 weeks post I/R) | development of interstitial fibrosis ([1]; picrosirius red, renal outer medulla)

From patent publication US20250073202A1, “METHODS TO TREAT RENAL DISORDERS USING CALCIUM CHANNEL INHIBITORS” (The Trustees of Indiana University, priority 2018, published 2025)
